For assay [1], the target named is T1, His-tagged human recombinant kinase full-length Akt1 (Homo sapiens, UniProt P31749).
T1 construct: His-tagged human recombinant kinase full-length Akt1; His; purchased Invitrogen PV 3599; host or cells: insect cells
The experiment in a line: Akt1 kinase assay (TR-FRET). The conditions noted are these: 10 μM ATP, 60 min at 22° C., read-out: Akt1, median IC50. Type of assay: biochemical. From the text: Akt1 inhibitory activity of compounds of the present invention was quantified employing the Akt1 TR-FRET assay as described in the following paragraphs.
His-tagged human recombinant kinase full-length Akt1 expressed in insect cells was purchased form Invitrogen (part number PV 3599). As substrate for the kinase reaction the biotinylated peptide biotin-Ahx-KKLNRTLSFAEPG (C-terminus in amide form) was used which can be purchased e.g. from the company Biosynthan GmbH (Berlin-Buch, Germany).
(§1) For the assay 50 nl of a 100 fold concentrated solution of the test compound in DMSO was pipetted into a black low volume 384well microtiter plate (Greiner Bio-One, Frickenhausen, Germany), 2 μl of a solution of Akt1 in assay buffer [50 mM TRIS/HCl pH 7.5, 5 mM MgCl2, 1 mM dithiothreitol, 0.02% (v/v) Triton X-100 (Sigma)] were added and the mixture was incubated for 15 min at 22° C. to allow pre-binding of the test compounds to the enzyme before the start of the kinase reaction. Then the kinase reaction was started by the addition of 3 μl of a solution of adenosine-tri-phosphate (ATP, 16.7 μM=>final conc. in the 5 μl assay volume is 10 μM) and substrate (1.67 μM=>final conc. in the 5 μl assay volume is 1 μM) in assay buffer and the resulting mixture was incubated for a reaction time of 60 min at 22° C. The concentration of Akt1 in the assay was adjusted depending of the activity of the enzyme lot and was chosen appropriate to have the assay in the linear range, typical enzyme concentrations were in the range of about 0.05 ng/μl (final conc. in the 5 μl assay volume).
The reaction was stopped by the addition of 5 μl of a solution of HTRF detection reagents (200 nM streptavidine-XL665 [Cisbio] and 1.5 nM anti-phosho-Serine antibody [Millipore, cat. #35-001] and 0.75 nM LANCE Eu-W 1024 labeled anti-mouse IgG antibody [Perkin Elmer]) in an aqueous EDTA-solution (100 mM EDTA, 0.1% (w/v) bovine serum albumin in 50 mM HEPES/NaOH pH 7.5). The resulting mixture was incubated 1 h at 22° C. to allow the binding of the biotinylated phosphorylated peptide to the streptavidine-XL665 and the antibodies. Subsequently the amount of phosphorylated substrate was evaluated by measurement of the resonance energy transfer from the anti-mouse-IgG-Eu-Chelate to the streptavidine-XL665. Therefore, the fluorescence emissions at 620 nm and 665 nm after excitation at 350 nm was measured in a HTRF reader, e.g. a Rubystar (BMG Labtechnologies, Offenburg, Germany) or a Viewlux (Perkin-Elmer). The ratio of the emissions at 665 nm and at […] was taken as the measure for the amount of phosphorylated substrate. The data were normalised (enzyme reaction without inhibitor=0% inhibition, all other assay components but no enzyme=100% inhibition).
On the technique in general: In TR-FRET formats the signal depends on donor and acceptor labels being close together.

In assay [2] the test system is KPL-4 breast cancer cell line. Kind of assay: Tumor cell proliferation assay (CellTiter-Glo). The class given is cell-based. The conditions noted are these: KPL4, 72 h drug exposure. As for the experimental part:
Compounds were tested in a cell-based assay that measures the capacity of the compounds to inhibit tumour cell proliferation following a 72 h drug exposure. Cell viability is determined using CellTiter-Glow® (CTG, Promega, cat #G7571/2/3). The CellTiter-Glo® Luminescent Cell Viability Assay is a homogeneous method to determine the number of viable cells in culture. Detection is based on using the luciferase reaction to measure the amount of ATP from viable cells. The amount of ATP in cells correlates with cell viability. Within minutes after a loss of membrane integrity, cells lose the ability to synthesize ATP, and endogenous ATPases destroy any remaining ATP; thus the levels of ATP fall precipitously.
Cells were plated at 3000-5000 cells/well (depending on the cell lines) in 90 μL growth medium on MTPs (Corning; #3603, black plate, clear flat bottom). For each cell line assayed, cells were plated onto a separate plate for determination of […] at t=0 hour and t=72 hour time points. Following overnight incubation at 37° C., chemiluminescence values for the t=0 samples were determined after adding 10 μl medium and 100 μl CTG solution according to manufacture protocol. Plates for the t=72 hour time points were treated with compounds diluted into growth medium at ten times final concentration added in 10 μL to the cell culture plate. Cells were then incubated for 72 hours at 37° C. Chemiluminescence values for the t=72 hour samples were determined. […] Experiments were controlled using a reference compound as standard.

The target of assay [3] is T2, His-tagged human recombinant kinase full-length Akt2 (Homo sapiens, UniProt P31751).
T2 construct: His-tagged human recombinant kinase full-length Akt2; His; purchased Invitrogen PV 3975; host or cells: insect cells
Kind of assay: Akt2 kinase assay (TR-FRET). Type of assay: biochemical. To be noted: 10 μM ATP, 60 min at 22° C., read-out: Akt2, median IC50.
Text: Akt2 inhibitory activity of compounds of the present invention was quantified employing the Akt2 TR-FRET assay as described in the following paragraphs.
His-tagged human recombinant kinase full-length Akt2 expressed in insect cells and activated by PDK1 was purchased form Invitrogen (part number PV 3975). As substrate for the kinase reaction the biotinylated peptide biotin-Ahx-KKLNRTLSFAEPG (C-terminus in amide form) was used which can be purchased e.g. from the company Biosynthan GmbH (Berlin-Buch, Germany).
as §1, with “Akt2” for “Akt1”, “0.2” for “0.05”
The reaction was stopped by the addition of 5 μl of a solution of HTRF detection reagents (200 nM streptavidine-XL665 [Cisbio] and 1.5 nM anti-phosho-Serine antibody [Millipore, cat. #35-001] and 0.75 nM LANCE Eu-W 1024 labeled anti-mouse IgG antibody [Perkin Elmer]) in an aqueous EDTA-solution (100 mM EDTA, 0.1% (w/v) bovine serum albumin in 50 mM HEPES/NaOH pH 7.5).
The resulting mixture was incubated 1 h at 22° C. to allow the binding of the biotinylated phosphorylated peptide to the streptavidine-XL665 and the antibodies.
Subsequently the amount of phosphorylated substrate was evaluated by measurement of the resonance energy transfer from the anti-mouse-IgG-Eu-Chelate to the streptavidine-XL665. Therefore, the fluorescence emissions at 620 nm and 665 nm after excitation at 350 nm was measured in a TR-FRET reader, e.g. a Rubystar (BMG Labtechnologies, Offenburg, Germany) or a Viewlux (Perkin-Elmer). The ratio of the emissions at 665 nm and at […] was taken as the measure for the amount of phosphorylated substrate. The data were normalised (enzyme reaction without inhibitor=0% inhibition, all other assay components but no enzyme=100% inhibition).

pIC50: −log10 of the molar value.

T1 sequence (P31749 whole entry): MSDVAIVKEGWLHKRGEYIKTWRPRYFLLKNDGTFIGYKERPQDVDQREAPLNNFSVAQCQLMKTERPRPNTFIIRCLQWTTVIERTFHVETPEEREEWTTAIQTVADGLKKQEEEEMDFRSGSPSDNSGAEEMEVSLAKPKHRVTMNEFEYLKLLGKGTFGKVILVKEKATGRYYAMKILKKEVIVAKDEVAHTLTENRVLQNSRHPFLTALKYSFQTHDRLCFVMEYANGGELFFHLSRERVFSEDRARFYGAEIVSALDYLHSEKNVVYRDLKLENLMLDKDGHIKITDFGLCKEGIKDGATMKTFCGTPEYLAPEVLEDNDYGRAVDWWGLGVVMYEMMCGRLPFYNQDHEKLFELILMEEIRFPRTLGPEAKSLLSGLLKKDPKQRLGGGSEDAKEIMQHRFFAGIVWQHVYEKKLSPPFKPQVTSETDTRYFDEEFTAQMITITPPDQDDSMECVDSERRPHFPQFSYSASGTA
T2 sequence (P31751 whole entry): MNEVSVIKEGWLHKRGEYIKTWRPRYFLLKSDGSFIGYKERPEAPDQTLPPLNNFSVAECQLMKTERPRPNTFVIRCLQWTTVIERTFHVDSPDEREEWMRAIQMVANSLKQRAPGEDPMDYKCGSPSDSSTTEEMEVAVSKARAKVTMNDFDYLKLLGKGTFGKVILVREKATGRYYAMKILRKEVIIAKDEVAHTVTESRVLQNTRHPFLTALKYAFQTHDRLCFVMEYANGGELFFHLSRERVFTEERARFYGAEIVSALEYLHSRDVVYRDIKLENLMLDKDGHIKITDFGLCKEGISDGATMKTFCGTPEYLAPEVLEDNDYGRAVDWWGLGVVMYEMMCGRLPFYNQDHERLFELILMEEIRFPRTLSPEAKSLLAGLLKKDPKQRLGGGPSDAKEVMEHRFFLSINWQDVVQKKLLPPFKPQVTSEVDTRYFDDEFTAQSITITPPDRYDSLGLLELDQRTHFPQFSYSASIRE

In general, pIC50 refers to the IC50 on a negative log10 scale, so that one unit is a factor of ten. For `NC1(c2ccc(-c3nc4nc(C5CC5)nn4cc3-c3ccccc3)cc2)CCC1` [Example 1-4, 1-[4-(2-cyclopropyl-6-phenyl-[1,2,4]triazolo[1,5-a]pyrimidin-5-yl)-phenyl]-cyclobutylamine], the pIC50 in assay [1] was 6.12; in assay [2], 5.85; in assay [3], 6.39.
Regarding `Cc1cn2c(NC3CC3)c(-c3ccccc3)c(-c3ccc(C4(N)CCC4)cc3)nc2n1` [Example 2-5, {7-[4-(1-Amino-cyclobutyl)-phenyl]-2-methyl-6-phenyl-imidazo[1,2-a]pyrimidin-5-yl)-cyclopropylamine], the pIC50 in assay [2] was 5.44; in assay [3], 6.27.
As for `CC(C)(C)Nc1c(-c2ccccc2)c(-c2ccc(C3(N)CCC3)cc2)nc2nc(-c3ccccn3)nn12` [Example 3-0, {5-[4-(1-Aminocyclobutyl)-phenyl]-6-phenyl-2-pyridine-2-yl-[1,2,4]triazolo[1,5-a]pyrimidin-7-yl}-tert.-butylamine], the pIC50 is 5.95 in assay [1], 5.76 in assay [2] and 7.21 in assay [3].
With `CNc1nc2nc(-c3ccc(C4(N)CCC4)cc3)c(-c3ccccc3)cn2n1` [Example 5-3, {5-[4-(1-amino-cyclobutyl)-phenyl]-6-phenyl-[1,2,4]triazolo[1,5-a]pyrimidin-2-yl}-methyl-amine], the pIC50 in assay [1] was 6.28; in assay [2], 5.66; in assay [3], 6.42.
In the case of `NC1(c2ccc(-c3nc4nc(Nc5ccccc5)nn4cc3-c3ccccc3)cc2)CCC1` [Example 5-4, {5-[4-(1-Amino-cyclobutyl)-phenyl]-6-phenyl-[1,2,4]triazolo[1,5-a]pyrimidin-2-yl}-phenyl-amine], the negative-log IC50 (pIC50) in assay [1] was 6.55; in assay [2], 5.21; in assay [3], 6.71.
With `CC(C)Nc1nc2nc(-c3ccc(C4(N)CCC4)cc3)c(-c3ccccc3)cn2n1` [Example 5-5, {5-[4-(1-amino-cyclobutyl)-phenyl]-6-phenyl-[1,2,4]triazolo[1,5-a]pyrimidin-2-yl}-isopropyl-amine], the pIC50 in assay [1] is 5.83; in assay [2], 5.66; in assay [3], 6.63.
With `Cc1nc2nc(-c3ccc(C4(N)CCC4)cc3)c(-c3ccccc3)c(NC3CCC3)n2n1` [Example 5-8, {5-[4-(1-amino-cyclobutyl)-phenyl]-2-methyl-6-phenyl-[1,2,4]triazolo[1,5-a]pyrimidin-7-yl}-cyclobutyl-amine], the pIC50 in assay [1] is 6.14; in assay [2], 5.44; in assay [3] it was 6.52.
As to `Cc1nc2nc(-c3ccc(C4(N)CCC4)cc3)c(-c3ccccc3)c(NCC3CC3)n2n1` [Example 5-9, {5-[4-(1-amino-cyclobutyl)-phenyl]-2-methyl-6-phenyl-[1,2,4]triazolo[1,5-a]pyrimidin-7-yl}-cyclopropylmethyl-amine], the values for the pIC50 in assay [1] and in assay [3] were 6.07 and 6.27, respectively.
Take `CNc1c(-c2ccccc2)c(-c2ccc(C3(N)CCC3)cc2)nc2nc(C3CC3)nn12` [Example 5-10, {5-[4-(1-amino-cyclobutyl)-phenyl]-2-cyclopropyl-6-phenyl-[1,2,4]triazolo[1,5-a]pyrimidin-7-yl}-methyl-amine]: the results for the pIC50 in assay [1] and in assay [3] were 6.03 and 6.01, respectively.
For the compound `CCNc1c(-c2ccccc2)c(-c2ccc(C3(N)CCC3)cc2)nc2nc(C)nn12` [Example 5-11, {5-[4-(1-amino-cyclobutyl)-phenyl]-2-methyl-6-phenyl-[1,2,4]triazolo[1,5-a]pyrimidin-7-yl}-ethyl-amine], the pIC50 in assay [1] is 5.76; in assay [3] it was 5.95.
For `Cc1nc2nc(-c3ccc(C4(N)CCC4)cc3)c(-c3ccccc3)c(NC3CC3)n2n1` [Example 5-12, {5-[4-(1-amino-cyclobutyl)-phenyl]-2-methyl-6-phenyl-[1,2,4]triazolo[1,5-a]pyrimidin-7-yl}-cyclopropyl-amine], the negative-log IC50 (pIC50) in assay [1] is 5.73; in assay [3] it was 6.04.
On the same counts, the results for `CNc1c(-c2ccccc2)c(-c2ccc(C3(N)CCC3)cc2)nc2nc(C)nn12` [Example 5-13, {5-[4-(1-amino-cyclobutyl)-phenyl]-2-methyl-6-phenyl-[1,2,4]triazolo[1,5-a]pyrimidin-7-yl}-methyl-amine] are 5.65 and 5.65.
On to `COCCNc1c(-c2ccccc2)c(-c2ccc(C3(N)CCC3)cc2)nc2nc(C)nn12` [Example 5-14, {5-[4-(1-amino-cyclobutyl)-phenyl]-2-methyl-6-phenyl-[1,2,4]triazolo[1,5-a]pyrimidin-7-yl}-(2-methoxy-ethyl)-amine], for which the pIC50 is 5.49 in assay [1] and 5.63 in assay [3].
For `NC1(c2ccc(-c3nc4nc(C5CC5)nn4c(N[C@H]4CC[C@H](O)CC4)c3-c3ccccc3)cc2)CCC1` [Example 5-15, 4-{5-[4-(1-amino-cyclobutyl)-phenyl]-2-cyclopropyl-6-phenyl-[1,2,4]triazolo[1,5-a]pyrimidin-7-ylamino}-cyclohexanol], the negative logarithm of the IC50 (pIC50) in assay [1] was 4.94; in assay [3], 6.03.

The values are drawn from patent US20130184273A1, “BICYCLIC PYRIMIDINES” (Bayer Intellectual Property GmbH, priority 2010, published 2013).
